# Test system: SNB19 cells
# Assay: Wound healing assay
# Format: cell-based, human
# Settings: 48 hrs after scratching; scratch 2 days after start of treatment
# Procedure: The wound healing assay was carried out according to Zhang et al. (2018) J Mol Neurosci 64:262-272. At the designated time, five randomly selected fields at the lesion border were acquired under an inverted microscope (Olympus, IX71). The mean number of cells at the control group was defined as 100% and the mean number of other groups was normalised by means of the control group, respectively.
substance,measurement,value
verteporfin,wound healing (cell migration),healed more slowly

# Reference: patent US20250302999A1, “TRANSGENE CASSETTES AND EPIGENETIC SILENCERS FOR THE TREATMENT OF DISORDERS” (Ospedale San Raffaele S.r.I., priority 2022, published 2025)
